The values below come from US8722589B2, “Use of 1-alkyl-5-oxopyrrolidine-3-carboxylic esters as gas hydrate inhibitors with improved biodegradability” (Clariant Finance (BVI) Limited, priority 2007, dated 2014).

A short description of one data set: Agglomerate inhibition in stirred autoclave (water/white spirit/natural gas). Conditions: 5000 ppm based on water phase; water and white spirit 1:2; 50 bar; 500 rpm; 4° C. How it is done: (§1) To investigate the inhibiting action of the 1-alkyl-5-oxopyrrolidine-3-carboxylic esters, a stirred steel autoclave with temperature control, pressure and torque sensor of capacity 450 ml was used. For studies of kinetic inhibition, the autoclave was filled with distilled water and gas in a volume ratio of 20:80; for studies of agglomerate inhibition, condensate was additionally added. Subsequently, 50 bar of natural gas were injected.
(§2) The measure used for the inhibiting action of the product is the time from the attainment of the minimum temperature of 4° C. until the first gas absorption (Tind) or the time until the torque rises (Tagg). Long induction times or agglomeration times indicate an effect as a kinetic inhibitor. The torque measured in the autoclave serves, in contrast, as a parameter for the agglomeration of the hydrate crystals.
In order to test the action as agglomerate inhibitors, the test autoclave used above was initially charged with water and white spirit (20% of the volume in a ratio of 1:2) and, based on the water phase, 5000 ppm of the particular additive were added.
At an autoclave pressure of 50 bar and a stirrer speed of 500 rpm, the temperature was cooled from initially 20° C. within 3 hours to 4° C., then the autoclave was stirred at 4° C. for 18 hours and heated up again. In the course of this, the agglomeration time up to occurrence of gas hydrate agglomerates and the torque which occurred on the stirrer at that time were measured, the latter being a measure of the agglomeration of the gas hydrates.
The comparative substance employed was a commercially available antiagglomerant (quaternary ammonium salt).
With `CCCCCCCC/C=C\CCCCCCCCN1CC(C(=O)OCC(CO)(CO)COC(=O)C2CC(=O)N(CCCCCCCC/C=C\CCCCCCCC)C2)CC1=O` (stereo not shown) [Example 22, pentaerythrityl di(1-oleyl-5-oxopyrrolidine-3-carboxylate)], the “Mmax (torque on the stirrer)” value came out at 1.9 Ncm and the “Tagg (agglomeration time up to occurrence of gas hydrate agglomerates)” value is on record as 3.8 h.
The matching figures for `CCCCCCCC/C=C\CCCCCCCCN1CC(C(=O)OCC(CC)CCCC)CC1=O` (stereo not shown) [Example 20, 2-ethylhexyl 1-oleyl-5-oxopyrrolidine-3-carboxylate]: 2.1 Ncm and 3.5 h.
For `CCCCCCCC/C=C\CCCCCCCCN1CC(C(=O)OCC(C)C)CC1=O` (stereo not shown) [Example 19, isobutyl 1-oleyl-5-oxopyrrolidine-3-carboxylate], the “Mmax (torque on the stirrer)” value worked out at 1.2 Ncm and the “Tagg (agglomeration time up to occurrence of gas hydrate agglomerates)” value was 6.0 h.
As for `CCCCCCCC/C=C\CCCCCCCCN1CC(C(=O)OCC(CO)(COCC(CO)(COC(=O)C2CC(=O)N(CCCCCCCC/C=C\CCCCCCCC)C2)COC(=O)C2CC(=O)N(CCCCCCCC/C=C\CCCCCCCC)C2)COC(=O)C2CC(=O)N(CCCCCCCC/C=C\CCCCCCCC)C2)CC1=O` (stereo not shown) [Example 23, dipentaerythrityl tetra(1-oleyl-5-oxopyrrolidine-3-carboxylate)], the “Mmax (torque on the stirrer)” value was determined as 2.0 Ncm and the “Tagg (agglomeration time up to occurrence of gas hydrate agglomerates)” value was determined as 3.8 h.
As to “(oleyl alcohol+5 EO) 1-isobutyl-5-oxopyrrolidine-3-carboxylate [Example 16]”, the “Mmax (torque on the stirrer)” value is 1.0 Ncm and the “Tagg (agglomeration time up to occurrence of gas hydrate agglomerates)” value is reported as 5.9 h.
For the compound `CCCCCCCC/C=C\CCCCCCCCN1CC(C(=O)OCC(COC(=O)C2CC(=O)N(CCCCCCCC/C=C\CCCCCCCC)C2)OC(=O)C2CC(=O)N(CCCCCCCC/C=C\CCCCCCCC)C2)CC1=O` (stereo not shown) [Example 21, glyceryl tri(1-oleyl-5-oxopyrrolidine-3-carboxylate)], the “Mmax (torque on the stirrer)” value is reported as 2.0 Ncm and the “Tagg (agglomeration time up to occurrence of gas hydrate agglomerates)” value is listed as 2.9 h.
Taken in the same sequence, the figures for “(oleyl alcohol+5 EO) 1-methyl-5-oxopyrrolidine-3-carboxylate [Example 7]” were 0.9 Ncm and 6.5 h.

A short description of another data set: Biodegradability to OECD 306.
Details: not given
For the compound `CC(C)CN1CC(C(=O)OCC(COC(=O)C2CC(=O)N(CC(C)C)C2)OC(=O)C2CC(=O)N(CC(C)C)C2)CC1=O` (stereo not shown) [Example 12, glyceryl tri(1-isobutyl-5-oxopyrrolidine-3-carboxylate)], the “Biodegradability 28 days (OECD 306)” value was determined as 85.
`CN1CC(C(=O)OCC(COC(=O)C2CC(=O)N(C)C2)OC(=O)C2CC(=O)N(C)C2)CC1=O` (stereo not shown) [Example 3, glyceryl tri(1-methyl-5-oxopyrrolidine-3-carboxylate)]: the “Biodegradability 28 days (OECD 306)” value stood at 90.

The next data set in a line: Kinetic gas hydrate inhibition in stirred steel autoclave (water/natural gas). The note with it: 5000 ppm based on water phase; 50 bar natural gas; cooled 20° C. to 4° C.; water:gas 20:80. How it is done: as §1
At first, a pressure decrease corresponding to the thermal compression of the gas is observed. When the formation of gas hydrate nuclei occurs during the cooling time, the pressure measured falls, and a rise in the torque measured and a slight increase in the temperature are observed. […] When the mixture is heated, the gas hydrates decompose, so that the starting state of the experimental series is attained.
as §2
Composition of the natural gas used:
The dosage in all tests was 5000 ppm based on the water phase.
`CC(C)CN1CC(C(=O)OCC(CO)(CO)COC(=O)C2CC(=O)N(CC(C)C)C2)CC1=O` (stereo not shown) [Example 13, pentaerythrityl di(1-isobutyl-5-oxopyrrolidine-3-carboxylate)]: the “Tagg (time until the torque rises)” value is 17.4 h and the “Tind (time from attainment of 4° C. until first gas absorption)” value (from here on “Tind”) is 16.9 h.
Take `CN1CC(C(=O)OCC(CO)(COCC(CO)(COC(=O)C2CC(=O)N(C)C2)COC(=O)C2CC(=O)N(C)C2)COC(=O)C2CC(=O)N(C)C2)CC1=O` (stereo not shown) [Example 5, dipentaerythrityl tetra(1-methyl-5-oxopyrrolidine-3-carboxylate)]: the “Tagg (time until the torque rises)” value is 10.1 h and the “Tind” value turned out to be 10.0 h.
Taken in the same sequence, the figures for `CN1CC(C(=O)OCC(CO)(CO)COC(=O)C2CC(=O)N(C)C2)CC1=O` (stereo not shown) [Example 4, pentaerythritol di(1-methyl-5-oxopyrrolidine-3-carboxylate)] were 11.5 h and 11.4 h.
Taken in the same sequence, the figures for `CC(C)COC(=O)C1CC(=O)N(C)C1` (stereo not shown) [Example 1, isobutyl 1-methyl-5-oxopyrrolidine-3-carboxylate] were 11.0 h and 10.9 h.
For the compound `CCCCC(CC)COC(=O)C1CC(=O)N(CC(C)C)C1` (stereo not shown) [Example 11, 2-ethylhexyl 1-isobutyl-5-oxopyrrolidine-3-carboxylate], the “Tagg (time until the torque rises)” value amounted to 18.3 h and the “Tind” value was found to be 17.5 h.
Taken in the same sequence, the figures for `CCCCC(CC)COC(=O)C1CC(=O)N(C)C1` (stereo not shown) [Example 2, 2-ethylhexyl 1-methyl-5-oxopyrrolidine-3-carboxylate] were 11.7 h and 11.5 h.
For the compound `CC(C)CN1CC(C(=O)OCC(COC(=O)C2CC(=O)N(CC(C)C)C2)OC(=O)C2CC(=O)N(CC(C)C)C2)CC1=O` (stereo not shown) [Example 12, glyceryl tri(1-isobutyl-5-oxopyrrolidine-3-carboxylate)], the “Tagg (time until the torque rises)” value worked out at 18.8 h and the “Tind” value worked out at 18.1 h.
As to “dipentaerythrityl tetra(1-isobutyl-5-oxopyrrolidine-3-carboxylate) [Example 14]”, the “Tagg (time until the torque rises)” value came out at 15.9 h and the “Tind” value was determined as 15.3 h.
As to `CCCCOCCOCCOCCOC(=O)C1CC(=O)N(CC(C)C)C1` (stereo not shown) [Example 15, butyltriglycol 1-isobutyl-5-oxopyrrolidine-3-carboxylate], the “Tagg (time until the torque rises)” value was found to be 17.2 h and the “Tind” value is recorded as 16.1 h.
In the case of `CC(C)COC(=O)C1CC(=O)N(CC(C)C)C1` (stereo not shown) [Example 10, isobutyl 1-isobutyl-5-oxopyrrolidine-3-carboxylate], the “Tagg (time until the torque rises)” value came to 17.0 h and the “Tind” value is 16.1 h.
`CN1CC(C(=O)OCC(COC(=O)C2CC(=O)N(C)C2)OC(=O)C2CC(=O)N(C)C2)CC1=O` (stereo not shown) [Example 3, glyceryl tri(1-methyl-5-oxopyrrolidine-3-carboxylate)]: the “Tagg (time until the torque rises)” value worked out at 12.5 h and the “Tind” value is reported as 12.0 h.
On to `CCCCOCCOCCOCCOC(=O)C1CC(=O)N(C)C1` (stereo not shown) [Example 6, butyltriglycol 1-methyl-5-oxopyrrolidine-3-carboxylate], for which the “Tagg (time until the torque rises)” value is listed as 13.4 h and the “Tind” value amounted to 13.1 h.
